The values that follow come from patent US10618937B2, “Method of treating Alzheimer's disease” (INDUSTRY-ACADEMIC COOPERATION FOUNDATION GYEONGSANG …, priority 2016, dated 2020).

Test [1] relates to APP-transfected HT-22 cells. As to the kind of experiment: Western blot analysis of proteins isolated from APP-transfected HT-22 cells. The note with it: 1, 5, 10 or 20 μM. In kind it is cell-based. The method, then:
(§1) SH-SY5Y cells and HT-22 cells were inoculated into a culture flask containing the medium, and cultured until reaching the confluency of 70% to 75%. The pCAX vector with the APPswe/ind gene was transfected for 48 hours by using Lipofectamine 3000 (Life technologies) according to the manufacturers instructions.
Protein concentrations were measured by using a BIORAD protein assay kit (BIORAD LABORATORIES, CA, USA). Equal amounts of protein (15 to 25 μg) were electrophoresed under the same experimental conditions using 4 to 12% BLOT™ minigel and MES SDS electrophoresis buffer (running buffer) 1×(NOVEX, LIFE TECHNOLOGIES, Kiryat Shmona, Israel), and a broad range prestained protein marker (GANGNAM STAIN™, Intron Biotechnology) was used as the control for the molecular size. To reduce nonspecific binding, the membranes used were blocked with 5% (w/v) skim milk and reacted with a primary antibody (a 1:1000 dilution) overnight at 4° C. After an appropriate reaction with a horseradish peroxidase (HRP)-binding secondary antibody, proteins were detected by using an ECL detection reagent (AMERSHAM PHARMECIA BIOTECH, Uppsala, Sweden) according to the manufacturer's instructions. The X-ray film was scanned and the optical density of the band was analyzed using a densitometry using a computer-based Sigma Gel program, version 1.0 (SPSS, Chicago, Ill., USA).
For use as the primary antibody, anti-amyloid β (Aβ), anti-APP, anti-AdipoR1 (Adiponectin receptor 1), anti-phospho-AMPK, anti-SNAP-25 (Synaptosomal-Associated Protein 25), anti-SAP-102, anti-Syanpatophysin, phospho-Tau (Ser 413), anti-p-mTOR, anti-p-ULK1, and anti-β-actin were used.

Test [2] concerns APP-transfected SH-SY5Y cells. The experiment in a line: MTT assay, cell viability of APP-transfected SH-SY5Y cells. It is filed as cell-based, human. The note with it: 0.5, 1, 5, 10 and 20 μM, 4 hours, compared to the untreated APP group. The method, then:
The human APPswe/ind gene under the transcriptional control of the SV40 promoter/enhancer linked to the pCAX mammalian expression vector was obtained from addgene; The gene was deposited in the APP reservoir by Dennis Solkoe (plasmid 30145). The plasmid was amplified by DH5alpha strain in LB medium containing 50 μg/ml of ampicillin. The plasmid was purified by using a Qiagen plasmid mini kit (Cat #12143) and digested with EcoRV restriction enzyme and confirmed. The human neuroblastoma cell line SHYSY5Y used in the present in vitro experiments was cultured in DMEM medium containing 10% fetal bovine serum and 1% penicillin-streptomycin antibiotic (stock solutions concentrations of 10,000 U and 10,000 μg/ml, respectively)).
as §1
APPswe/ind transfected SH-SY5Y cells were treated with novel peptide for 4 hours, followed by 3-[4, 5-dimethylthiazol-2-yl]-2,5-diphenyl tetrazolium bromide (MTT) analysis and Western blot analysis.
MTT assay was performed to measure the survival rate of cells treated with various concentrations of adiponectin receptor-activating novel peptide (5AA1). The cells were inoculated at 1×10^5 cells/well in a 96-well plate containing 200 μl of Dulbecco's modified Eagle's medium (DMEM). After 70% of cell confluence, SH-SY5Y cells were treated with 0.5 μM, 1 μM, 5 μM, 10 μM, and 20 μM of adiponectin receptor-activating novel peptide, and then cultured for 4 hours. At the end of the treatment, MTT (5 mg/ml in PBS) was added to each well, and the plate was cultured at a temperature of 37° C. for 4 hours. The formazan dissolved in dimethyl sulfoxide (DMSO) was added to the well and the plate was stirred in the agitator for 10 to 20 minutes. Then, the absorbance was measured at a wavelength of 550 nm to 570 nm (L1) and 620 nm to 650 nm (L2) by using a scanning microplate reader.
The L2 absorbance was measured for cell residuals and well imperfections, and the corrected absorbance (Abs.=L1−L2) of each well was calculated from 100× the absorbance of treated well/absorbance of the control well, and was used to measure the cell viability.
In general terms: Tetrazolium dyes change colour on reduction, which living cells bring about.

The subject of test [3] is primary hippocampus neurons. The experiment in a line: In vitro electrophysiological analysis (AMPAR-mediated mEPSCs). In kind it is cell-based, Sprague-Dawley rats. The note with it: compared to the Aβ group, various concentrations. On the procedure: Primary hippocampus neurons isolated from E19 Sprague-Dawley rats were cultured to a density of 150 cells/mm^2. AMPA receptor (AMPAR)-mediated miniature excitatory postsynaptic currents (mEPSCs) were recorded by using conventional whole-cell techniques. When primary hippocampus neurons were filled with an internal solution, the electrode resistance was varied from 3 MΩ to 5 MΩ.
The inventors of the present specification performed current measurements by using an Axopatch 200A patch-clamp amplifier (Molecular Devices, Sunnyvale, Calif.).
The voltage of the membrane and the voltage of current, commands, and digitization were adjusted by using Digidata 1322A connected to Clampex 9.2 (Molecular Devices, Sunnyvale, Calif.) of the pClamp software package on an IBM-compatible computer. The inventors of the present specification analyzed data by using Clampfit (Molecular Devices, Sunnyvale, Calif.) and Prism 4.0 (GraphPad, San Diego, Calif.). The current was low-pass filtered at 2 kHz by using an amplifiers four-pole Bessel filter. […]
The cumulative probability curve of mEPSCs was calculated by using Clampfit 9.0 software and Prism 4.0 (GraphPad, San Diego, Calif.). […]

Turning to “RGPCG (adiponectin receptor-activating peptide) [5AA1]”, in test [1], the “expression of AdipoR1 protein” value is “expressed more” and the “expression of p-AMPK protein” value was “expressed more”. Further, in test [1] (normalized with β-actin), the “expression level of amyloid β (Aβ)” value is listed as “significantly reduced” and the “expression level of β-amyloid precursor protein (APP)” value was “significantly reduced”. In test [2], the cell viability entry was “concentration-dependently increased”. Further, the mEPSC frequency result in test [3] is recorded as “statistically significantly increased”.
